Measured values from patent publication US8691768B2, “Methods of determining delta opioid receptor subtypes” (The Regents of the University of California, priority 2008, dated 2014).

Assays:
[1] = test system: GABAA IPSCs in VTA neurons; assay: Slice electrophysiology, whole-cell patch-clamp of GABAA IPSCs in VTA neurons; assay type: cell-based, Lewis rats
[2] = test system: Lewis rats, ventral tegmental area (VTA); assay: Ethanol self-administration (two-bottle continuous access) after microinjection into the VTA; assay type: in vivo
Experimental: Male Lewis rats (Harlan Laboratories, Indianapolis, Ind.) weighing between 275-300 g were individually housed in a temperature controlled colony room (21° C.) maintained on a reversed light/dark cycle 12L:12D cycle (lights off at 10 A.M., lights on at 10 P.M.). All experiments were performed during the dark portion of the cycle. Food and water was provided ad libitum.
Ethanol was administered via a two-bottle continuous access, free-choice paradigm in which one bottle contained 10% ETOH (v/v) and the other bottle contained water. Sucrose was never added to the ethanol solution. The amount of ETOH and water consumed was measured at the same time daily (10 A.M.). […] Animals were weighed daily. Bottles were identical and their positions were counterbalanced and rotated daily. Change in drinking was calculated by subtracting the amount of drinking (mg/kg) on the day following treatment from the amount of drinking (mg/kg) on the day prior to treatment.
Animals were anesthetized and maintained on isoflurane (0.5 l/min) as needed for the duration of surgery. Animals were placed in a stereotaxic frame and were implanted with bilateral 26-gauge stainless steel chronic guide cannulas (Plastincs One, Roanoke, Va.) into the VTA (AP, −5.8; ML, ±0.5; DV, −7.0) based on the atlas of Paxinos and Watson (1997, The rat brain in sterotaxic coordinates, compact, Ed 3. San Diego: Academic). Cannulas were secured to the skull with dental cement. At the end of the surgical procedure, animals were treated with penicillin and topical antibiotics. A stainless steel dummy cannula (Plastics One) was inserted into each guide cannula and remained in place when the guide cannulas were not in use. Animals were allowed a 1 week recovery period before behavioral testing.
Each injection was made using a 1 μl syringe (Hamilton, Reno, Nev.) attached to 20 cm of PE 50 tubing connected to a 33-gauge injection cannula (Plastics One). Microinjections of 0.5 μl volumes were given at a rate of 0.5 μl/min using a syringe pump (kd Scientific, Hollister, Mass.) into each side of the VTA, except for bicuculline injections, where 0.25 μl was injected per side. Injection cannulas extended 2 mm beyond guide cannulas and were left in place for 1 min following microinjections to minimize the backflow of drug solution. In addition to drug microinjections, physiological saline microinjections were made in every rat to measure the effect of the injection manipulation alone on drinking Drug injections were randomized and counterbalanced. Change in drinking due to drug microinjections was calculated by comparing both the previous day's consumption (“baseline”) and to saline injection. At the conclusion of the experiment, animals were anesthetized with pentobarbital and perfused intracardially through the ascending aorta with 0.1 M phosphate buffered saline followed by 10% formalin. Brains were sectioned coronally at 50 μm, mounted and stained with cresyl violet. Only animals with confirmed injection sites within the VTA were included. No behavioral differences were observed between animals with anterior compared with posterior cannula placements.
For behavioral experiments, DPDPE (10mM; Sigma, St. Louis, Mo.), TIPP-ψ (5 μM; NIDA, Bethesda, Md.), Bicuculline (1 mM; Sigma), DAMGO (0.2 mM; Sigma), and CTOP (10 mM; Tocris, Ellisville, Mo.) were prepared in physiological saline for microinjection into the VTA. For electrophysiology, all drugs were applied by bath perfusion. Stock solutions were made and diluted in artificial CSF immediately before application. All chemicals were obtained from Sigma or Tocris except TIPP-ψ, which was acquired from NIDA.
Results are presented as mean±SEM where appropriate. For behavioral data, drinking was analyzed using 24 h time points. Raw drinking data were used for paired Student's t test comparisons probing drug effects on drinking compared with baseline or saline injections, a more conservative comparison than analyzing normalized data. […]

Lewis rats = assay: Cocaine self administration after VTA microinjection; assay type: in vivo; details: 10 mM into VTA, compared to saline
Experimental: Lewis rats (Charles River, Mass.) weighing 275-350 g at the beginning of behavioral testing are housed and treated as previously described. Prior to cocaine self administration, rats are anesthetized with a ketamine-xylazine-acepromazine mixture and implanted with a chronic jugular catheter using methods previously described (Caine & Koob, 1993). Following surgery, rats receive daily administration of the antibiotic ticarcillin (20 mg/day at 100 mg/ml; GlaxoSmithKline, Research Triangle Park, NC). Catheter patency is tested by infusion of the fast-acting barbiturate Brevital (methohexital sodium; 1 mg/0.1 ml; Lilly, Indianapolis, Ind.). Self-administration training is conducted in operant-conditioning chambers enclosed within sound-attenuating cabinets (MED Associates, St. Albans, Vt.). […] Presses on the active lever result in either a 120 microL infusion of cocaine over a 4-s period via a Razel pump (Razel Scientific Instruments, Fairfax, Vt.) or delivery of a 45-mg food pellet (Bio-Serv, Frenchtown, N.J.). […] Presses on the active lever result in a 20-s time-out, signaled by illumination of the stimulus light and retraction of the active lever. […] Following training, rats are microinjected with either 10 mM DPDPE or saline directly into the VTA prior to cocaine self-administration and active lever presses are recorded.

[3] = 1 μM, VTA neurons from drinking animals

(2-D-penicillamine, 5-D-penicillamine)-enkephalin [DPDPE]
relation between DPDPE induced inhibition of evoked and spontaneous IPSCs and amount of EtOH consumed [1]: inverse correlation
evoked IPSCs [1, 3]: significantly inhibited
spontaneous IPSCs [1, 3]: significantly inhibited
GABA release onto VTA neurons ([1]; abstinent animals, 3 and 7 days off bottles): maintained its ability to inhibit GABA release
GABAA IPSCs ([1]; age-matched, ethanol-naive, control animals): no effect
saturating dose ([1]; dose-response in the animal groups, in presence of 1 μM CTAP): 1 µM
GABA release in the VTA ([1]; low drinkers): Decreases GABA Release
drinking (EtOH) ([2]; 10 mM into VTA, compared with control saline microinjections in the same rats): also evident
drinking (EtOH) ([2]; 10 mM into VTA, high drinkers): only at trend level
drinking (EtOH) ([2]; 10 mM into VTA, low drinkers): particularly prominent
relation between baseline EtOH consumption and % baseline drinking following administration ([2]; 10 mM into VTA, n=15): inverse correlation
drinking (EtOH) ([2]; 10 mM microinjected into VTA, all animals, compared with the day before treatment): decreased drinking
cocaine self administration (active lever presses) (Lewis rats): decrease cocaine self administration
